Test results: paper PMC11858653, “Design, Synthesis and Bioactive Evaluation of Topo I/c-MYC Dual Inhibitors to Inhibit Oral Cancer via Regulating the PI3K/AKT/NF-κB Signaling Pathway” (Molecules, 2025)
Entries after “also recorded” stand apart in the source; their conditions may differ.

What was measured:
NCI-H460 = assay: MTT antiproliferative assay, NCI-H460; assay type: cell-based, human; settings: mean ± SD
Experimental: (§1) Having evaluated their Topo I inhibitory activity, the antiproliferative activity of the target compounds against some common human cancer cell lines (NCI-H460, A549, ACHN, Cal27 and MGC-803) and one normal cell line (SV-HUC-1) was tested via an MTT assay. TPT, the first Topo I inhibitor approved in clinics, and cisplatin (CDDP), a commonly selected anticancer drug for treating head and neck malignancies, were used as the positive controls.
(§2) Human oral cancer Cal27 cells were seeded in 96-well plates and incubated overnight in 180 μL of medium containing 10% Fetal Bovine Serum (Gibco, San Francisco, CA, USA). […] Then, 10 μL of 5 mg/mL MTT solution was added to each well and incubated at 37 °C for 4 h. After 4 h of incubation at 37 °C, the MTT-containing medium was removed and DMSO was added to each well and the absorbance at 570 nm and 630 nm was measured using a microplate reader (CYTATION 3, Burton, Westwood, NJ, USA). Survival/% = (mean OD of experimental group/mean OD of control group) × 100%. Each test was repeated at least three times.

A549 = assay: MTT antiproliferative assay, A549; assay type: cell-based, human; settings: mean ± SD
Experimental: as §1, §2

MGC-803 = assay: MTT antiproliferative assay, MGC-803; assay type: cell-based, human; settings: mean ± SD
Experimental: as §1, §2

Topo I = biological target: T1, Topo I (Homo sapiens, UniProt P11387); assay: Topo I inhibitory activity, agarose gel electrophoresis (pBR322); assay type: biochemical; settings: for nicked DNA in the lane (DNA breakage) / Topo I inhibitory activity (in words): 20 μM
T1 sequence (P11387 1-765): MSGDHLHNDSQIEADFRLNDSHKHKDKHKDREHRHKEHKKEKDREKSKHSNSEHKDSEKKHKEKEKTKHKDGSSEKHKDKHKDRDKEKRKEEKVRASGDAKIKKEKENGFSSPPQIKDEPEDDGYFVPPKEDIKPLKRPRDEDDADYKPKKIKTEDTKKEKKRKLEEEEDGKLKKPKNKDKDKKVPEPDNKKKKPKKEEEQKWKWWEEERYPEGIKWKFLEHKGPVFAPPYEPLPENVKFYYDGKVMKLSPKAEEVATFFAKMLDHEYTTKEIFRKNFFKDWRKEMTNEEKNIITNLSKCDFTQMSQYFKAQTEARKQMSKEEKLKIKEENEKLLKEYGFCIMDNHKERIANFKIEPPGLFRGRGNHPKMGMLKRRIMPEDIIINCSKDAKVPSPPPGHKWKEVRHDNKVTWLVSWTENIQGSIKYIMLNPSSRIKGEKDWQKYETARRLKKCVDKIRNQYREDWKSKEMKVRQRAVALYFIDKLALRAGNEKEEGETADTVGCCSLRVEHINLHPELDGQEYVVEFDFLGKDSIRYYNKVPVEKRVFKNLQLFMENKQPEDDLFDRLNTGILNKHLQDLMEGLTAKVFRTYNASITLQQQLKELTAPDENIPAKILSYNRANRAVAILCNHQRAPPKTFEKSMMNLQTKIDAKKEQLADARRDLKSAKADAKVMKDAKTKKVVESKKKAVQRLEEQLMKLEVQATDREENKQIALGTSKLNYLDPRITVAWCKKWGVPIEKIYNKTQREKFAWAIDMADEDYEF
Experimental: In this assay, 250 ng of pBR322 plasmid DNA, different concentrations of the compounds to be tested, 0.1% BSA 1 μL, 10× Topo I buffer, Topo I and add 1× TAE buffer were mixed to a final volume of 20 μL. The reaction was carried out for 30 min at 37 °C in a water bath. After the reaction was terminated, 4 μL of each of the 6× DNA Sampling Buffers were added to the gel. The pBR322 plasmid DNA alone was used as a negative control, and camptothecin was used as a positive control. Finally, the samples were loaded onto the gels and electrophoresed for about 1.5 h. After electrophoresis, the gel blocks were incubated in 1 mg/L ethidium bromide (EB) for 30 min and then visualized on the gel system.

SV-HUC-1 = assay: MTT assay, normal cell line SV-HUC-1; assay type: cell-based; settings: mean ± SD
Experimental: as §1, §2

ACHN = assay: MTT antiproliferative assay, ACHN; assay type: cell-based, human; settings: 48 h, mean ± SD
Experimental: as §1, §2

Cal27 = assay: MTT antiproliferative assay, Cal27; assay type: cell-based, human; settings: mean ± SD
Experimental: as §1, §2

| SMILES | IC50 (NCI-H460; 48 h) | IC50 (A549; 48 h) | IC50 (MGC-803; 48 h) | nicked DNA in the lane (DNA breakage) (Topo I) | IC50 (SV-HUC-1; 48 h) | IC50 (ACHN) | IC50 (Cal27; 48 h) | IC50 (NCI-H460; Homo sapiens, NCI-H460, 48 h) | IC50 (A549; Homo sapiens, A549, 48 h) | IC50 (MGC-803; Homo sapiens, MGC-803, 48 h) | Topo I inhibitory activity (in words) (Topo I) | IC50 (SV-HUC-1; SV-HUC1, 48 h) | IC50 (ACHN; Homo sapiens, ACHN) | IC50 (Cal27; Homo sapiens, CAL-27, 48 h) | concentration at which the activity of Topo I was fully inhibited (Topo I; different concentrations) |
| --- | --- | --- | --- | --- | --- | --- | --- | --- | --- | --- | --- | --- | --- | --- | --- |
| CCN(CC)CCCNc1nc2c(c3ccccc13)S(=O)(=O)c1nc(-c3ccccc3)cc(C)c1-2 [7cg, 5-((3-(Diethylamino)propyl)amino)-7-methyl-9-phenylpyrido[3′,2′:4,5]thieno[3,2-c]isoquinoline 11,11-dioxide] | 16.6 ± 1.44 µM | 27.1 ± 2.25 µM | 8.22 ± 2.75 µM | nicked DNA could be clearly observed | 15.6 ± 3.18 µM | 15.4 ± 3.65 µM | 17.7 ± 3.96 µM | – | – | – | – | – | – | – | – |
| Cc1cc(C)c2c(n1)S(=O)(=O)c1c-2nc(NCCN2CCCC2)c2ccccc12 [7bc, 7,9-Dimethyl-5-((2-(pyrrolidin-1-yl)ethyl)amino) pyrido[3′,2′:4,5]thieno[3,2-c]isoquinoline 11,11-dioxide] | – | – | – | – | – | – | – | 9.57 ± 2.07 µM | 5.47 ± 0.82 µM | 6.44 ± 0.76 µM | potent Topo I activity | 8.17 ± 3.36 µM | 6.41 ± 1.41 µM | 3.36 ± 0.83 µM | – |
| Cc1cc(-c2ccccc2)nc2c1-c1nc(NCCCN3CCCC3)c3ccccc3c1S2(=O)=O [7ch, 7-Methyl-9-phenyl-5-((3-(pyrrolidin-1-yl)propyl)-amino)pyrido[3′,2′:4,5]thieno[3,2-c]isoquinoline 11,11-dioxide] | > 100 µM | > 100 µM | > 100 µM | nicked DNA could be clearly observed | 49.6 ± 3.27 µM | > 100 µM | > 100 µM | – | – | – | – | – | – | – | – |
| O=S1(=O)c2ncccc2-c2nc(NCCCN3CCCC3)c3ccccc3c21 [7ah, 5-((3-(Pyrrolidin-1-yl)propyl)amino)pyrido[3′,2′:4,5] thieno[3,2-c]isoquinoline 11,11-dioxide] | – | – | – | nicked DNA could be clearly observed | – | – | – | 42.7 ± 2.28 µM | 27.7 ± 1.49 µM | 19.5 ± 0.87 µM | – | > 100 µM | 13 ± 1.24 µM | 23.1 ± 2.48 µM | – |
| Cc1cc(C)c2c(n1)S(=O)(=O)c1c-2nc(NCCN(C)C)c2ccccc12 [7ba, 5-((2-(Dimethylamino)ethyl)amino)-7,9-dimethylpyrido[3′,2′:4,5]thieno[3,2-c]isoquinoline 11,11-dioxide] | – | – | – | – | – | – | – | 6.68 ± 1.5 µM | 7.03 ± 1.95 µM | 6.33 ± 0.75 µM | potent Topo I activity | 4.66 ± 1.69 µM | 4.59 ± 1.68 µM | 4.99 ± 2 µM | – |
| Cc1cc(C)c2c(n1)S(=O)(=O)c1c-2nc(NCCCN2CCCC2)c2ccccc12 [7bh, 7,9-Dimethyl-5-((3-(pyrrolidin-1-yl)propyl)amino)-pyrido[3′,2′:4,5]thieno[3,2-c]isoquinoline 11,11-dioxide] | – | – | – | – | – | – | – | 4.79 ± 0.4 µM | 4.84 ± 0.74 µM | 4.83 ± 0.67 µM | potent Topo I activity | 3.83 ± 0.14 µM | 5.9 ± 1.45 µM | 3.47 ± 0.84 µM | 40 µM |
| Cc1cc(-c2ccccc2)nc2c1-c1nc(NCCCN(C)C)c3ccccc3c1S2(=O)=O [7cf, 5-((3-(Dimethylamino)propyl)amino)-7-methyl-9-phenylpyrido[3′,2′:4,5]thieno[3,2-c]isoquinoline 11,11-dioxide] | 12.6 ± 2.23 µM | > 100 µM | 13.3 ± 4.44 µM | nicked DNA could be clearly observed | 12.1 ± 3.26 µM | 16.6 ± 3.08 µM | 21.5 ± 3.81 µM | – | – | – | – | – | – | – | – |
| CN(C)CCCNc1nc2c(c3ccccc13)S(=O)(=O)c1ncccc1-2 [7af, 5-((3-(Dimethylamino)propyl)amino)pyrido[3′,2′:4,5] thieno[3,2-c]isoquinoline 11,11-dioxide] | – | – | – | nicked DNA could be clearly observed | – | – | – | 64.5 ± 2.88 µM | 13.8 ± 2.53 µM | 9.84 ± 1.32 µM | – | > 100 µM | 14.7 ± 0.15 µM | 10.6 ± 0.96 µM | – |
| Cc1cc(C)c2c(n1)S(=O)(=O)c1c-2nc(NCCCN(C)C)c2ccccc12 [7bf, 5-((3-(Dimethylamino)propyl)amino)-7,9-dimethylpyrido[3′,2′:4,5]thieno[3,2-c]isoquinoline 11,11-dioxide] | – | – | – | – | – | – | – | 5.07 ± 1.92 µM | 6.25 ± 2.23 µM | 8.44 ± 2.86 µM | potent Topo I activity; also recorded: weak Topo I activity | 5.14 ± 1.55 µM | 6.67 ± 1.49 µM | 5.2 ± 1.2 µM | – |
| NCCCNc1nc2c(c3ccccc13)S(=O)(=O)c1ncccc1-2 [7ak, 5-((3-Aminopropyl)amino)pyrido[3′,2′:4,5]thieno[3,2-c]isoquinoline 11,11-dioxide] | – | – | – | nicked DNA could be clearly observed | – | – | – | 56.6 ± 3.25 µM | 52 ± 1.49 µM | 10.2 ± 1.61 µM | – | > 100 µM | 7.94 ± 3.26 µM | 10.6 ± 1.32 µM | – |
| Cc1cc(C)c2c(n1)S(=O)(=O)c1c-2nc(NCCN2CCOCC2)c2ccccc12 [7bd, 7,9-Dimethyl-5-((2-morpholinoethyl)amino)pyrido[3′,2′:4,5]thieno[3,2-c]isoquinoline 11,11-dioxide] | – | – | – | – | – | – | – | > 100 µM | > 100 µM | > 100 µM | weak Topo I activity | > 100 µM | > 100 µM | > 100 µM | – |
| O=S1(=O)c2ncccc2-c2nc(NCCN3CCCC3)c3ccccc3c21 [7ac, 5-((2-(Pyrrolidin-1-yl)ethyl)amino)pyrido[3′,2′:4,5] thieno[3,2-c]isoquinoline 11,11-dioxide] | – | – | – | nicked DNA could be clearly observed | – | – | – | 12 ± 4.2 µM | 9.69 ± 2.08 µM | 15.2 ± 3.41 µM | – | 14.2 ± 2.77 µM | 16.9 ± 3.27 µM | 14.6 ± 2.12 µM | – |
| CCN(CC)CCNc1nc2c(c3ccccc13)S(=O)(=O)c1nc(C)cc(C)c1-2 [7bb, 5-((2-(Diethylamino)ethyl)amino)-7,9-dimethylpyrido[3′,2′:4,5]thieno[3,2-c]isoquinoline 11,11-dioxide] | – | – | – | – | – | – | – | 7.68 ± 0.88 µM | 7.54 ± 2.07 µM | 6.02 ± 1.59 µM | weak Topo I activity | 3.57 ± 0.35 µM | 5.66 ± 0.54 µM | 4.89 ± 2.41 µM | – |
| CCN(CC)CCCNc1nc2c(c3ccccc13)S(=O)(=O)c1nc(C)cc(C)c1-2 [7bg, 5-((3-(Diethylamino)propyl)amino)-7,9-dimethyl-pyrido[3′,2′:4,5]thieno[3,2-c]isoquinoline 11,11-dioxide] | – | – | – | – | – | – | – | 6.92 ± 2.01 µM | 6.54 ± 0.52 µM | 6.23 ± 1.96 µM | weak Topo I activity | 4.38 ± 0.46 µM | 6.89 ± 2.86 µM | 6.35 ± 3.28 µM | – |
